Reference: US11339144B2 (Navitor Pharmaceuticals, Inc., priority 2017, dated 2022)

Target: HA-GST-Rheb (GTP-γ-S loaded) activating mTORC1 (Homo sapiens (Human), UniProt Q15382)
Test: Rheb-dependent in vitro kinase assay (Rheb-IVK; LanthaScreen or Western readout)
Type: biochemical
Set-up: IVK IC50 (μM): scale not given here
Conditions: Rheb-dependent in vitro kinase assay; for IC50: read-out: IVK IC50

Sequence of HA-GST-Rheb (GTP-γ-S loaded) activating mTORC1 (Q15382 1-181): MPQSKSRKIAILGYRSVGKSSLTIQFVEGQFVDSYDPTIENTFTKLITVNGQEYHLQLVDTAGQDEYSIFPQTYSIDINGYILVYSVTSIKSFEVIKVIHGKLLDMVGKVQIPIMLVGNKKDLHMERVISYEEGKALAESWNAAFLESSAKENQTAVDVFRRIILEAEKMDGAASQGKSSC

Compound: CCn1c(CO)nc2cc(OCc3ccccc3)c(Cl)cc21 [I-487]
- IC50: > 100 µM

Compound: Cn1ccc2c(Sc3ccc(Cl)cc3)cc(Cl)cc21 [I-205]
- IC50: > 100 µM

Compound: CCOCc1nc2c(Cl)cc(OCc3ccccc3)cc2n1CC [I-415]
- IC50: > 100 µM

Compound: Cn1c(CO)cc2c(Sc3ccc(Cl)cc3)cc(Cl)cc21 [I-206]
- IC50: > 100 µM

Compound: Cc1cc(Oc2ccccc2)cc2c1cc(CO)n2Cc1nc[nH]n1 [I-234]
- IVK IC50 (μM): E/F

Compound: OCc1nc2cc(Cl)c(OCc3ccccc3)cc2n1Cc1nc[nH]n1 [I-402]
- IC50: > 100 µM

Compound: Cn1c(CO)nc2cc(Cl)c(OCc3ccccc3)cc21 [I-426]
- IC50: > 100 µM

Compound: Clc1ccc(Sc2cccc3cc[nH]c23)cc1 [I-217]
- IC50: > 100 µM

Compound: OCc1cc2c(Oc3ccccc3F)cccc2[nH]1 [I-277, (4-(2-fluorophenoxy)-1H-indol-2-yl)methanol]
- IC50: 300 to 800 µM

Compound: OCc1nc2c(OCC3CCCN3)c(Cl)c(Cl)cc2[nH]1 (centres unmarked) [I-468]
- IC50: > 100 µM

Compound: N#CCc1nc2c(Oc3ccccc3)cccc2[nH]1 [I-471]
- IC50: > 100 µM

Compound: Clc1ccc(CSc2cccc3[nH]ccc23)cc1Cl [I-191]
- IC50: > 100 µM

Compound: OCc1cc2c(Oc3ccccc3Cl)cccc2[nH]1 [I-276, (4-(2-chlorophenoxy)-1H-indol-2-yl)methanol]
- IC50: 100 to 300 µM

Compound: Clc1ccc(Sc2cc(Sc3ccc(Cl)cc3)c3cc[nH]c3c2)cc1 [I-200]
- IC50: > 100 µM

Compound: Cn1c(CO)cc2c(Oc3ccccc3)cccc21 [I-280]
- IC50: > 100 µM

Compound: O=C(O)c1cc(Sc2ccc(Cl)cc2)c2cc[nH]c2c1 [I-193]
- IC50: > 100 µM

Compound: CCn1c(CO)nc2cc(Cl)c(OCc3cccc(F)c3)cc21 [I-443]
- IC50: > 100 µM

Compound: OCc1nc2cc(OCc3cccc(Cl)c3)c(Cl)cc2[nH]1 [I-478, (5-chloro-6-(3-chlorobenzyloxy)-1H-benzo[d]imidazol-2-yl)methanol]
- IC50: 300 to 800 µM

Compound: Clc1cccc(Oc2cccc3[nH]ccc23)c1 [I-284, 4-(3-chlorophenoxy)-1H-indole]
- IC50: 10 to 100 µM

Compound: OCc1nc2ccc(Oc3ccccc3)cc2n1Cc1nc[nH]n1 [I-397]
- IC50: > 100 µM

Compound: N#CCc1nc2cc(OCc3ccccc3)c(Cl)cc2[nH]1 [I-473]
- IC50: > 100 µM

Compound: OCc1nc2cc(Cl)c(Cl)c(OCC3CCCCN3)c2[nH]1 (centres unmarked) [I-462]
- IC50: > 100 µM

Compound: CCn1c(CO)nc2cc(Cl)c(OCc3cccc(Cl)c3)cc21 [I-448]
- IC50: > 100 µM

Compound: Nc1nonc1-c1nc2cc(Cl)c(Cl)cc2n1Cc1ccccc1 [I-491]
- IC50: > 100 µM

Compound: OCc1ccc(Sc2cccc3[nH]ccc23)cc1 [I-183]
- IC50: > 100 µM

Compound: N#Cc1cccc(Cn2c(-c3ncco3)nc3cc(Cl)c(Cl)cc32)c1 [I-463]
- IC50: > 100 µM

Compound: Cn1ccc2c(Oc3cccc(F)c3)cccc21 [I-266]
- IC50: > 100 µM

Compound: Clc1ccc(Cc2cccc3[nH]ccc23)cc1 [I-179]
- IC50: > 100 µM

Compound: Nc1ccnc(COc2c(Cl)c(Cl)cc3[nH]c(CO)nc23)n1 [I-420]
- IC50: > 100 µM

Compound: OCc1nc2c(Oc3ccccc3Cl)cccc2n1Cc1nc[nH]n1 [I-407, (1-((1H-1,2,4-triazol-3-yl)methyl)-4-(2-chlorophenoxy)-1H-benzo[d]imidazol-2-yl)methanol]
- IC50: > 100 µM

Compound: OCc1cc2c(C3CCCCC3)cc(Oc3ccccc3)cc2[nH]1 [I-223]
- IC50: > 100 µM

Compound: OCc1nc2c(Oc3ccccc3)c(Cl)ccc2[nH]1 [I-418, (5-chloro-4-phenoxy-1H-benzo[d]imidazol-2-yl)methanol]
- IC50: 100 to 300 µM

Compound: c1cnc(Nc2cccc3[nH]ccc23)nc1 [I-189]
- IC50: > 100 µM

Compound: CCn1cnc2cc(OCc3ccccc3)c(Cl)cc21 [I-434, 5-(benzyloxy)-6-chloro-1-ethyl-1H-benzo[d]imidazole]
- IC50: 100 to 300 µM

Compound: COc1cccc(Sc2cccc3[nH]ccc23)c1 [I-195]
- IC50: > 100 µM

Compound: OCc1nc2cc(OCc3ccccc3)c(Cl)cc2n1Cc1nc[nH]n1 [I-403, (1-((1H-1,2,4-triazol-3-yl)methyl)-5-(benzyloxy)-6-chloro-1H-benzo[d]imidazol-2-yl)methanol]
- IC50: 100 to 300 µM

Compound: Cn1ccc2c(NC3CCNCC3)cccc21 [I-297, 1-methyl-N-(piperidin-4-yl)-1H-indol-4-amine]
- IC50: 300 to 800 µM

Compound: Cn1c(CO)cc2c(Oc3ccccc3Cl)cccc21 [I-272]
- IC50: > 100 µM

Compound: O=C(O)c1cccc(Cn2c(-c3ncco3)nc3cc(Cl)c(Cl)cc32)c1 [I-446]
- IC50: > 100 µM

Compound: OCc1nc2c(Br)cc(Oc3ccccc3)cc2n1Cc1nc[nH]n1 [I-406]
- IC50: > 100 µM

Compound: Cn1c(CO)cc2c(Oc3ccccc3F)cccc21 [I-274]
- IC50: > 100 µM

Compound: Cn1cc(-c2cc(Oc3ccccc3)cc3[nH]c(CO)cc23)cn1 [I-227]
- IC50: > 100 µM

Compound: Clc1cc2nc(-c3ncco3)n(Cc3cccc(-c4nn[nH]n4)c3)c2cc1Cl [I-438]
- IC50: > 100 µM

Compound: [O-][S+](c1ccccc1Cl)c1cccc2[nH]ccc12 (centres unmarked) [I-231]
- IC50: > 100 µM

Compound: OCc1cc2c(Cl)cc(Oc3ccccc3)cc2n1Cc1c[nH]cn1 [I-174]
- IC50: > 100 µM

Compound: O=S(=O)(c1ccc(Cl)cc1)c1cccc2[nH]ccc12 [I-242]
- IC50: > 100 µM

Compound: OCc1nc2cc(Cl)c(OCc3ccccc3)cc2n1CC(F)(F)F [I-458]
- IC50: > 100 µM

Compound: O=C(O)CCc1cc2c(Oc3ccccc3)c(Cl)ccc2[nH]1 [I-253]
- IC50: > 100 µM

Compound: OCc1cc2ccc(Oc3ccccc3)cc2n1Cc1nc[nH]n1 [I-214]
- IC50: > 100 µM

Compound: Cc1cc(Oc2ccccc2)cc2[nH]c(CO)cc12 [I-238]
- IC50: > 100 µM

Compound: [O-][S+](c1ccccc1)c1cc(Br)c2cc(CO)[nH]c2c1 (centres unmarked) [I-229]
- IC50: > 100 µM

Compound: Cn1c(CO)cc2c(Oc3ccccc3)cc(Cl)cc21 [I-281]
- IC50: > 100 µM

Compound: Cn1c(CO)cc2c(OCc3ccccc3)cc(Cl)cc21 [I-292]
- IC50: > 100 µM

Compound: CCn1c(CO)nc2cc(Cl)c(OCc3ccccc3Cl)cc21 [I-433]
- IC50: > 100 µM

Compound: O=C(O)c1ccc(Cn2c(-c3ncco3)nc3cc(Cl)c(Cl)cc32)cc1 [I-452]
- IC50: > 100 µM

Compound: Nc1cccc(COc2c(Cl)c(Cl)cc3nc(CO)[nH]c23)n1 [I-464]
- IC50: > 100 µM

Compound: OCc1nc2c(Br)cc(Oc3ccccc3)cc2[nH]1 [I-428, (4-bromo-6-phenoxy-1H-benzo[d]imidazol-2-yl)methanol]
- IC50: > 100 µM

Compound: Nc1ncccc1COc1c(Cl)c(Cl)cc2[nH]c(CO)nc12 [I-436]
- IC50: > 100 µM

Compound: [O-][S+](c1cccc(Cl)c1)c1cccc2[nH]ccc12 (centres unmarked) [I-233]
- IC50: > 100 µM

Compound: Cn1c(CO)nc2c(OC[C@H]3CCCC[C@@H]3O)c(Cl)c(Cl)cc21 (racemic) [I-387, (+,−)-trans-2-((5,6-dichloro-2-(hydroxymethyl)-1-methyl-1H-benzo[d]imidazol-4-yloxy)methyl)cyclohexanol]
- IC50: 100 to 300 µM

Compound: COc1ccc(Cn2cnc3c(Br)cc(Oc4ccccc4)cc32)cc1 [I-429]
- IC50: > 100 µM

Compound: OCc1cc2c(C3CCCNC3)cc(Oc3ccccc3)cc2[nH]1 (centres unmarked) [I-219]
- IC50: > 100 µM

Compound: Clc1ccc2c(c1)nc(-c1ncco1)n2Cc1ccc(-c2nn[nH]n2)cc1 [I-410]
- IC50: > 100 µM

Compound: O=C1CCCC(COc2c(Cl)c(Cl)cc3[nH]c(CO)nc23)N1 (centres unmarked) [I-465, 6-((5,6-dichloro-2-(hydroxymethyl)-1H-benzo[d]imidazol-4-yloxy)methyl)piperidin-2-one]
- IC50: 100 to 300 µM

Compound: OCc1cc2c(OCCc3ccccc3)cc(Cl)cc2[nH]1 [I-279]
- IC50: > 100 µM

Compound: OCc1nc2c(OCc3cncnc3O)c(Cl)c(Cl)cc2[nH]1 [I-405]
- IC50: > 100 µM

Compound: CCn1c(CO)nc2cc(Cl)c(OCc3ccc(Cl)cc3)cc21 [I-450]
- IC50: > 100 µM

Compound: CCn1c(CO)nc2cc(OCc3cccc(Cl)c3)c(Cl)cc21 [I-401]
- IC50: > 100 µM

Compound: O=S(=O)(c1ccccc1)c1cc(Br)c2cc(CO)[nH]c2c1 [I-230]
- IC50: > 100 µM

Compound: Clc1cc2nc(-c3ccncc3)[nH]c2c(Cl)c1Cl [I-353, 5,6,7-trichloro-2-(pyridin-4-yl)-1H-benzo[d]imidazole]
- IC50: > 3 µM

Compound: c1ccc(Oc2cccc3nc(-c4ncco4)n(Cc4ccc(-c5nn[nH]n5)cc4)c23)cc1 [I-422]
- IC50: > 100 µM

Compound: (4-(2-(2-aminopyridin-4-yl)ethoxy)-5,6-dichloro-1H-benzo[d]imidazol-2-yl)methanol [I-182]
- IC50: > 100 µM

Compound: CC(=O)OCCc1cc2c(Oc3ccccc3)c(Cl)ccc2[nH]1 [I-260]
- IC50: > 100 µM

Compound: Cn1c(CO)cc2c(Oc3ccccc3)c(Cl)ccc21 [I-289]
- IC50: > 100 µM
